{
  "source": "paper PMC3612894",
  "about": "(Journal of medicinal chemistry, 2013)",
  "test_system": "T. cruzi",
  "assay": "T. cruzi in vitro inhibition assay",
  "type": "cell-based, Trypanosoma cruzi",
  "details": "host cells NIH 3T3",
  "data": [
    {"smiles": "Cc1cc(Oc2cccc(Cn3ccnc3)c2)cc(C)c1Cl", "note": "[Compound 4c, 1-(3-(4-chloro-3,5-dimethylphenoxy)benzyl)-1H-imidazole]", "values": [
      {"measurement": "selectivity over host cells", "result": "greater than 160 fold"}
    ]},
    {"smiles": "Clc1ccc(COc2cccc(Cn3ccnc3)c2)cc1", "note": "[Compound 4j, 1-(3-((4-chlorobenzyl)oxy)benzyl)-1H-imidazole]", "values": [
      {"measurement": "selectivity over host cells", "result": "greater than 160 fold"}
    ]}
  ]
}
